Assay results published in patent US20250186391A1, “ORAL COMPLEMENT FACTOR D INHIBITORS” (BioCryst Pharmaceuticals, Inc., priority 2019, published 2025).

The molecules below were run against Factor D (Homo sapiens (Human), UniProt P00746) (assay: Factor D esterolytic assay). Settings: Z-Lys-SBzl substrate, 100 mM HEPES, 500 mM NaCl, pH 7.5, 10% DMSO; tested a minimum of three times; read-out: Measured Ki (IC50) Value for Compounds: IC50.
Assay type: biochemical
Method in brief: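 Buffer was 100 mM HEPES, 500 mM NaCl, pH 7.5 with 10% DMSO. Compound and Factor D were combined, then Z-Lys-SBzl (1.29 mM) was added either at once or following room-temperature incubation. Rates came from DTNB colour at 405 nm minus 690 nm over 600 s, with percent inhibition giving IC50 over at least three tests.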

Factor D, sequence (P00746 26-253): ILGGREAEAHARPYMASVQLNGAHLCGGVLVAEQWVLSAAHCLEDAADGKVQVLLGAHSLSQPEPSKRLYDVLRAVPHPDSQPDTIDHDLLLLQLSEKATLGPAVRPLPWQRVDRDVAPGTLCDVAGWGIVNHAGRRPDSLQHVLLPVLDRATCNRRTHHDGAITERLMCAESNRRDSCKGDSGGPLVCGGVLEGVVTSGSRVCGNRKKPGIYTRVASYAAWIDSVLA

IC50 [µM]	Structure (SMILES)
< 1	NCc1cccc(-c2cc(NCC3CCCC3)c3occ(COc4ccccc4CC(=O)O)c3c2)c1 [Compound 146d, 2-(2-((5-(3-(aminomethyl)phenyl)-7-((cyclopentylmethyl)amino)benzofuran-3-yl)methoxy)phenyl)acetic acid]
> 10	NCc1cccc(-c2ccc3c(COc4ccccc4CC(=O)O)coc3c2)c1F [Compound 95b, 2-(2-((6-(3-(aminomethyl)-2-fluorophenyl)benzofuran-3-yl)methoxy)phenyl)acetic acid]
< 1	CN(C)Cc1cc(-c2cccc(CN)c2)cc2c(COc3ccccc3CC(=O)O)coc12 [Compound 82e, 2-(2-((5-(3-(aminomethyl)phenyl)-7-((dimethylamino)methyl)benzofuran-3-yl)methoxy)phenyl)acetic acid]
< 1	Cc1oc2ccc(-c3cccc(CN)c3)cc2c1COc1cc(F)ccc1CC(=O)O [Compound 200c, 2-(2-((5-(3-(aminomethyl)phenyl)-2-methylbenzofuran-3-yl)methoxy)-4-fluorophenyl)acetic acid]
< 1	NCc1cccc(-c2cc(NCC3CC3)c3occ(COc4ccccc4CC(=O)O)c3c2)c1 [Compound 85c, 2-(2-((5-(3-(aminomethyl)phenyl)-7-((cyclopropylmethyl)amino)benzofuran-3-yl)methoxy)phenyl)acetic acid]
> 10	NCc1cccc(-c2cccc3occ(COc4ccccc4CC(=O)O)c23)c1 [Compound 97h, 2-(2-((4-(3-(aminomethyl)phenyl)benzofuran-3-yl)methoxy)phenyl)acetic acid]
< 1	NCc1cccc(-c2cc(C#CC3CC3)c3occ(COc4ccccc4CC(=O)O)c3c2)c1 [Compound 294d, 2-(2-((5-(3-(aminomethyl)phenyl)-7-(cyclopropylethynyl)benzofuran-3-yl)methoxy)phenyl)acetic acid]
> 10	CC(C)n1nc(COc2cccc(CC(=O)O)c2)c2cc(-c3cccc(CN)c3)ccc21 [Compound 304c, 2-(3-((5-(3-(aminomethyl)phenyl)-1-isopropyl-1H-indazol-3-yl)methoxy)phenyl)acetic acid]
< 1	NCc1cccc(-c2ccc3occ(COc4cc(CN)ccc4CC(=O)O)c3c2)c1 [Compound 156c, 2-(4-(aminomethyl)-2-((5-(3-(aminomethyl)phenyl)benzofuran-3-yl)methoxy)phenyl)acetic acid]
< 1	NCc1cccc(-c2ccc3snc(COc4ccccc4CC(=O)O)c3c2)c1 [Compound 93e, 2-(2-((5-(3-(aminomethyl)phenyl)benzo[d]isothiazol-3-yl)methoxy)phenyl)acetic acid]
< 1	Cc1ccc(CC(=O)O)c(OCc2coc3c(OCC4CC4)cc(-c4cccc(CN)c4)cc23)c1 [Compound 161c, 2-(2-((5-(3-(aminomethyl)phenyl)-7-(cyclopropylmethoxy)benzofuran-3-yl)methoxy)-4-methylphenyl)acetic acid]
< 1	NCc1cccc(-c2cc3c(COc4ccccc4CC(=O)O)coc3c3ccoc23)c1 [Compound 123g, 2-(2-((5-(3-(aminomethyl)phenyl)benzo[1,2-b:3,4-b′]difuran-3-yl)methoxy)phenyl)acetic acid]
< 1	CC(C)n1nc(COc2ccccc2CC(=O)O)c2cc(-c3ccnc(CN)c3F)ccc21 [Compound 271c, 2-(2-((5-(2-(aminomethyl)-3-fluoropyridin-4-yl)-1-isopropyl-1H-indazol-3-yl)methoxy)phenyl)acetic acid]
< 1	CCCc1oc2ccc(-c3cccc(CN)c3)cc2c1COc1ccccc1CC(=O)O [Compound 286c, 2-(2-((5-(3-(aminomethyl)phenyl)-2-propylbenzofuran-3-yl)methoxy)phenyl)acetic acid]
< 1	NCc1cccc(-c2cc(CN3CCC[C@H]3C(F)(F)F)c3occ(COc4ccccc4CC(=O)O)c3c2)c1 [Compound 178f, (S)-2-(2-((5-(3-(aminomethyl)phenyl)-7-((2-(trifluoromethyl)pyrrolidin-1-yl)methyl)benzofuran-3-yl)methoxy)phenyl)acetic acid]
< 1	CCc1ccc(CC(=O)O)c(OCc2coc3ccc(-c4cccc(CN)c4F)cc23)c1 [Compound 12g, 2-(2-((5-(3-(aminomethyl)-2-fluorophenyl)benzofuran-3-yl)methoxy)-4-ethylphenyl)acetic acid]

IC50 [µM]	Structure (SMILES)
< 1	COc1ccc(CC(=O)O)c(OCc2c(C(C)=O)oc3ccc(-c4cccc(CN)c4)cc23)c1 [Compound 218c, 2-(2-((2-acetyl-5-(3-(aminomethyl)phenyl)benzofuran-3-yl)methoxy)-4-methoxyphenyl)acetic acid]
< 1	NCc1cccc(-c2cc(-c3cccc(CN)c3)c3oc(COc4ccccc4CC(=O)O)cc3c2)c1 [Compound 8e, 2-(2-((5,7-bis(3-(aminomethyl)phenyl)benzofuran-2-yl)methoxy)phenyl)acetic acid]
< 1	NCc1cccc(-c2cc(-c3ccccc3N)c3occ(COc4ccccc4CC(=O)O)c3c2)c1 [Compound 222c, 2-(2-((5-(3-(aminomethyl)phenyl)-7-(2-aminophenyl)benzofuran-3-yl)methoxy)phenyl)acetic acid]
> 10	NCc1cccc(-c2coc3c(COc4ccccc4CC(=O)O)cccc23)c1 [Compound 96e, 2-(2-((3-(3-(aminomethyl)phenyl)benzofuran-7-yl)methoxy)phenyl)acetic acid]
> 10	CC(C)n1nc(COc2cccc(C(=O)O)c2)c2cc(-c3cccc(CN)c3)ccc21 [Compound 303d, 3-((5-(3-(aminomethyl)phenyl)-1-isopropyl-1H-indazol-3-yl)methoxy)benzoic acid]
< 1	NCc1cccc(-c2cc(C(=O)NCC3CC3)cc3cc(COc4ccccc4CC(=O)O)oc23)c1 [Compound 32d, 2-(2-((7-(3-(aminomethyl)phenyl)-5-((cyclopropylmethyl)carbamoyl)benzofuran-2-yl)methoxy)phenyl)acetic acid]
< 1	COc1ccc(CC(=O)O)c(OCc2nn(C(C)C)c3ccc(-c4cccc(CN)c4)cc23)c1 [Compound 213c, 2-(2-((5-(3-(aminomethyl)phenyl)-1-isopropyl-1H-indazol-3-yl)methoxy)-4-methoxyphenyl)acetic acid]
< 1	Cc1cc2c(o1)c(-c1cccc(CN)c1)cc1c(COc3ccccc3CC(=O)O)c(C)oc12 [Compound 272n, 2-(2-((5-(3-(aminomethyl)phenyl)-2,7-dimethylbenzo[1,2-b:3,4-b′]difuran-3-yl)methoxy)phenyl)acetic acid]
< 1	COc1ccc(CC(=O)O)c(OCc2c(C(F)F)oc3c(C4CC4)cc(-c4cccc(CN)c4)cc23)c1 [Compound 234d, 2-(2-((5-(3-(aminomethyl)phenyl)-7-cyclopropyl-2-(difluoromethyl)benzofuran-3-yl)methoxy)-4-methoxyphenyl)acetic acid]
< 1	CCn1cc(-c2cc(-c3cccc(CN)c3)cc3c(COc4ccccc4CC(=O)O)coc23)cn1 [Compound 128c, 2-(2-((5-(3-(aminomethyl)phenyl)-7-(1-ethyl-1H-pyrazol-4-yl)benzofuran-3-yl)methoxy)phenyl)acetic acid]
< 1	CNc1cc(-c2cccc(CN)c2)cc2c(COc3cc(OC)ccc3CC(=O)O)coc12 [Compound 280c, 2-(2-((5-(3-(aminomethyl)phenyl)-7-(methylamino)benzofuran-3-yl)methoxy)-4-methoxyphenyl)acetic acid]
< 1	C[C@@H](N)c1cccc(-c2cc(CC3CCOCC3)c3occ(COc4ccccc4CC(=O)O)c3c2)c1F [Compound 164e, (R)-2-(2-((5-(3-(1-aminoethyl)-2-fluorophenyl)-7-((tetrahydro-2H-pyran-4-yl)methyl)benzofuran-3-yl)methoxy)phenyl)acetic acid]
< 1	COc1cc(-c2cccc(CN)c2)cc2c(COc3cc(C(F)(F)F)ccc3CC(=O)O)coc12 [Compound 269c, 2-(2-((5-(3-(aminomethyl)phenyl)-7-methoxybenzofuran-3-yl)methoxy)-4-(trifluoromethyl)phenyl)acetic acid]
< 1	NCc1cccc(-c2cc(-c3ccccc3)c3occ(COc4ccccc4CC(=O)O)c3c2)c1 [Compound 135c, 2-(2-((5-(3-(aminomethyl)phenyl)-7-phenylbenzofuran-3-yl)methoxy)phenyl)acetic acid]
< 1	CC(C)n1nc(COc2ccccc2CC(=O)O)c2cc(-c3cccc(CN)c3F)ccc21 [Compound 310b, 2-(2-((5-(3-(aminomethyl)-2-fluorophenyl)-1-isopropyl-1H-indazol-3-yl)methoxy)phenyl)acetic acid]
< 1	COCCc1oc2ccc(-c3cccc(CN)c3)cc2c1COc1ccccc1CC(=O)O [Compound 175h, 2-(2-((5-(3-(aminomethyl)phenyl)-2-(2-methoxyethyl)benzofuran-3-yl)methoxy)phenyl)acetic acid]

Structure (SMILES)	IC50 [µM]
CC(C)(C)OC(=O)n1cc(Cc2cccc(CC(=O)O)c2O)c2cc(-c3cccc(CN)c3)ccc21 [Compound 75e, 2-(3-((5-(3-(aminomethyl)phenyl)-1-(tert-butoxycarbonyl)-1H-indol-3-yl)methyl)-2-hydroxyphenyl)acetic acid]	> 10
CC(C)(C)OC(=O)c1oc2ccc(-c3cccc(CN)c3)cc2c1COc1ccccc1CC(=O)O [Compound 86b, 2-(2-((5-(3-(aminomethyl)phenyl)-2-(tert-butoxycarbonyl)benzofuran-3-yl)methoxy)phenyl)acetic acid]	< 1
CC(C)n1nc(C(=O)Nc2ccccc2CC(=O)O)c2cc(-c3cccc(CN)c3)ccc21 [Compound 293c, 2-(2-(5-(3-(aminomethyl)phenyl)-1-isopropyl-1H-indazole-3-carboxamido)phenyl)acetic acid]	< 1
